Like-named read-outs stand apart in the source and are kept apart here.
Key:
TNF-α = assay: Plasma TNF-α in hemorrhaged rats (ELISA); assay type: in vivo, rat; details: p<0.01
Protocol: (§1) Induction of Hemorrhagic Shock. Hemorrhage was induced by withdrawing blood from the femoral artery at a rate of approximately 0.5 to 1 mL/min until a MAP of 35 mmHg was reached. This MAP was maintained for 30 min by further withdrawal of blood, if necessary. The hemorrhagic shock model used in the present study is a well-established rodent model of manageable pressure hemorrhage (Buehler et al. 2000; Gulati et al. 1997a; Gulati and Sen 1998). The volume of blood loss was about approximately 8.0 ml in each rat and was similar in various groups, amounting to approximately 40% of the total blood. Measured hematocrit levels were similar in various groups. The duration of blood withdrawal was approximately 15 minutes.
(§2) Experimental design. […] The blood samples, for biochemical estimations, were collected at 30 minutes of resuscitation and cardiovascular parameters were monitored till 60 minutes after which the animal was sacrificed. […]

IL-6 = assay: Plasma IL-6 in hemorrhaged rats (ELISA); assay type: in vivo, rat; details: p<0.01
Protocol: as §1, §2

[1] = Renal blood perfusion in hemorrhaged rats with norepinephrine infusion to maintain MAP at 70 mmHg; assay type: in vivo, rat
Protocol: Experimental design. To determine the resuscitative effect of centhaquin on cardiovascular system in hemorrhagic shock, rats were randomly divided into three groups: Hemorrhaged rats were administered 100% shed blood volume of either normal saline (vehicle); 100% shed blood volume of either normal saline plus centhaquin (0.01 mg/kg) or 100% shed blood volume of either normal saline plus centhaquin (0.10 mg/kg) during the first 10 minutes of resuscitation. Additional experiments were also carried out where the amount of norepinephrine (a very commonly used vasopressor during resuscitation) required to maintain MAP at 70 mmHg in normal saline (NS) or centhaquin (0.01 mg/kg) treated rats (volume equal to blood loss) was determined.
The femoral vein was cannulated for drug administration, femoral artery was cannulated for measuring mean arterial pressure (MAP) and a laser Doppler flow probe was placed in the renal medulla to measure blood perfusion. Induction of hemorrhagic shock was initiated by withdrawing blood to maintain the MAP at 35 mmHg for 30 minutes. Norepinephrine infusion was carried out to bring and maintain the MAP to 70 mmHg. The effect of centhaquin on cardiovascular functions were measured before the induction of shock, 30 minutes after shock (hemorrhage) and 15, 30, 45, 60, 75 and 90 minutes after resuscitation. […]

[2] = Phase II study of PMZ-2010 as resuscitative agent for hypovolemic shock (CTRI/2017/03/008184), interim analysis; assay type: in vivo, human
Excerpt: A prospective, multi-centric, randomized, double-blind, parallel, saline controlled phase II study of PMZ-2010 (centhaquin) as a resuscitative agent for hypovolemic shock due to excessive blood loss (CTRI/2017/03/008184) is being conducted. All subjects received standard treatment for shock (the type of treatment and care the enrolling institution would provide). Patients were randomly assigned to either control cohort (N=7) that received standard treatment along with normal saline or PMZ-2010 cohort (N=12) that received standard treatment along with PMZ-2010.

[3] = in vivo; cited from earlier work
[4] = 24 human subjects; cited from earlier work
[5] = test system: isolated, perfused rabbit heart; details: cited from earlier work
[6] = cited from earlier work
[7] = cited from earlier work; remark: listed apart in the source
[8] = rat fixed pressure blood loss, rabbit uncontrolled bleeding with trauma, pig massive blood loss; cited from earlier work

In the case of `Cc1cccc(N2CCN(CCc3ccc4ccccc4n3)CC2)c1` [centhaquin, 2-[2-(4-(3-methyphenyl)-1-piperazinyl)]ethyl-quinoline], the “plasma TNF-α level compared to hypertonic saline alone” value (TNF-α) is reported as “further increased”, the “plasma IL-6 level compared to hypertonic saline alone” value (IL-6) is reported as “further increased” and the “renal blood perfusion compared to vehicle control following resuscitation” value ([1]; hemorrhaged female rats, till the end of experiment) is reported as “improved”. For the same compound, the “renal blood perfusion compared to vehicle control following resuscitation” value ([1]; hemorrhaged male rats) was “improved”, the “increase of diastolic blood pressure” value ([2]; 48 hours after resuscitation, control 15.4%) was 34.9% and the “blood urea nitrogen versus control cohort” value ([2]; baseline and discharge) was “similar”. For the same compound, the “decrease of serum creatinine level” value ([2]; baseline to discharge, control 25.35%) was 42.61%, the “increase of glomerular filtration rate” value ([2]; baseline to discharge, control 40.00%) was 81.52% and the “time spent on ventilator” value ([2]; control 5.09±3.14 days) was 0.85 ± 0.71 days. The “total amount of vasopressors needed in first 48 hours of resuscitation” value ([2]; control 18.4±12.1 mg) was 1.3 ± 1.2 mg, the “decrease of blood lactate levels” value ([2]; control 47%) was 63% and the “time in intensive care unit, of the total hospital stay” value ([2]; control 57.3%) was 39.3%. The “Total Number of doses administered” value ([2]; first 48 hours, 12 patients) was 13 doses in 12 patients, the “Number of doses per patient” value ([2]; first 48 hours, Mean ± SEM) was 1.08 ± 0.08 and the “increase in glomerular filtration rate, more compared to standard treatment” value ([2]; in vivo) was 41.52%. For the same compound, the “reduction of serum creatinine levels, more compared to standard treatment” value ([2]; in vivo) was 17.26%, the “total blood products administered in the first 48 hours, less than control” value ([2]; in vivo) was 23.4% and the “total fluids needed in the first 48 hours of resuscitation, less than control” value ([2]; in vivo) was 19.9%. For the same compound, the “adverse events (primary endpoint of safety)” value ([2]; patients, N=12) was “no adverse event was reported”, the “blood pressure increase versus control cohort” value ([2]; systolic and diastolic, baseline to discharge (FIG. 9)) was “more than that observed in control cohort” and the “increase of systolic blood pressure from baseline” value ([2]; until 48 hours after resuscitation, control 34.5%) was 45.2%. For the same compound, the half-life [3] was “about one”, the volume of distribution [3] was “high” and the safety and tolerability [4] was “safe and was well tolerated”. The “inotropic effect, ventricular contractions” value [5] was “positive inotropic effect”, the “survival compared to Lactated Ringer's” value ([6]; 0.015 mg/kg in the fluid resuscitation phase) was “significantly better survival” and the “cardiac output (CO)” value ([6]; 0.015 mg/kg) was “augments CO”. For the same compound, the “systemic vascular resistance (SVR)” value ([6]; 0.015 mg/kg) was “reduces systemic vascular resistance”, the “volume of fluids for resuscitation” value ([6]; 0.015 mg/kg) was “requires smaller volume of fluids” and the “survival of hemorrhaged rats” value ([7]; administered in one-fifth the volume of blood loss) was “improved the survival”. The blood lactate ([7]; rat model of hemorrhagic shock) was “decreased blood lactate”, the “cardiac output (CO)” value ([7]; rat model of hemorrhagic shock) was “significantly improved CO” and the survival ([7]; rat model of hemorrhagic shock) was “improved survival”. For the same compound, the “mortality following hypovolemic shock” value [8] was “highly effective in reducing the mortality”.

Reference: patent US12629406B2, “Alterations in endothelin receptors following hemorrhage and resuscitation by centhaquin” (MIDWESTERN UNIVERSITY, priority 2018, dated 2026)
